Molecular target: human GSK3β (Homo sapiens, UniProt P49841)
Test: Screening for GSK3 inhibitory activity using a cell-free assay
Type: biochemical
Conditions: read-out: IC50 with respect to GSK3
Method in brief: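 Radiometric cell-free assay with recombinant human GSK3β phosphorylating a biotinylated peptide substrate for 3 h. Reactions were stopped with 50 μM ATP/20 mM EDTA and captured on streptavidin plates. Incorporated radiolabel was counted by scintillation and plotted against compound concentration.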

Sequence of human GSK3β (P49841 whole entry): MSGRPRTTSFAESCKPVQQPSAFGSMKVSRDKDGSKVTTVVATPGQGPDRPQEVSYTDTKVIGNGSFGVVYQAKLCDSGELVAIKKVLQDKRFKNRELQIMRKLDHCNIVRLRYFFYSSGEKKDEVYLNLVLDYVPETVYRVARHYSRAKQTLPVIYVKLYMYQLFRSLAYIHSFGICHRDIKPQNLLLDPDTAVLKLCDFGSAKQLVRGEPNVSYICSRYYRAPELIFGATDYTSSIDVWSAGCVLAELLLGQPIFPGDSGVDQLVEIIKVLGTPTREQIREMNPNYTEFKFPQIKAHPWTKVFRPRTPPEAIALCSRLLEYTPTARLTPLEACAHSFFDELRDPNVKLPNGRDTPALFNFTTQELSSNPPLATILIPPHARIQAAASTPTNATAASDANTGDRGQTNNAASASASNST

Row | IC50 [µM] | SMILES
1 | ≤ 10 | COCCNC(=O)c1ccc(-c2ccnc(NCCNc3ccc([N+](=O)[O-])cn3)n2)cc1 [N-(2-methoxyethyl){4-[2-({2-[(5-nitro(2-pyridyl))amino]ethyl}amino)pyrimidin-4-yl]phenyl}carboxamide]
2 | ≤ 10 | O=C(NCc1cccc(Br)c1)c1ccc(-c2ccnc(NCCNc3ccc4ccccc4n3)n2)cc1 [N-[(3-bromophenyl)methyl][4-(2-{[2-(2-quinolylamino)ethyl]amino}pyrimidin-4-yl)phenyl]carboxamide]
3 | ≤ 10 | COC(=O)c1cnc(NCCNc2ccc([N+](=O)[O-])cn2)nc1-c1cccnc1 [methyl 2-({2-[(5-nitro(2-pyridyl))amino]ethyl}amino)-4-(3-pyridyl)pyrimidine-5-carboxylate]
4 | ≤ 10 | NC(=O)c1ccc(-c2ccnc(NCCNc3nc4ccccc4s3)n2)cc1
5 | ≤ 1 | NC(=O)c1ccc(-c2ccnc(NCCNc3ccc4ccccc4n3)n2)cc1 [4-(2-{[2-(2-quinolylamino)ethyl]amino}pyrimidin-4-yl)benzamide]
6 | ≤ 10 | CNCc1cccc(-c2cccc(CNc3nccc(-c4ccc(C(N)=O)cc4)n3)c2)c1 [4-(2-{[(3-{3-[(methylamino)methyl]phenyl}-phenyl)methyl]amino}pyrimidin-4-yl)benzamide]
7 | ≤ 1 | CCOC(=O)c1c(CC)nc(NCCNc2ccc([N+](=O)[O-])cn2)nc1-c1ccc(C#N)cc1 [ethyl 4-(4-cyano-phenyl)-6-ethyl-2-({2-[(5-nitro(2-pyridyl))amino]ethyl}amino)pyrimidine-5-carboxylate]
8 | ≤ 1 | Nc1nc(NCCNc2ncc(-c3ncc[nH]3)c(-c3ccccc3Cl)n2)ccc1[N+](=O)[O-] [{2-[(6-amino-5-nitro(2-pyridyl))amino]ethyl}[4-(2-chlorophenyl)-5-imidazol-2-ylpyrimidin-2-yl]amine]
9 | ≤ 1 | CCOC(=O)c1cnc(NCCNc2ccc(C#N)cn2)nc1-c1ccc(C#N)cc1 [ethyl 2-({2-[(5-cyano(2-pyridyl))amino]ethyl}amino)-4-(4-cyanophenyl)pyrimidine-5-carboxylate]
10 | ≤ 1 | NC(=O)c1ccc(-c2ccnc(NCCNc3ccc(C(F)(F)F)cn3)n2)cc1 [4-{2-[(2-{[5-(trifluoromethyl)-2-pyridyl]amino}-ethyl)amino]pyrimidin-4-yl}benzamide]
11 | ≤ 10 | CN1CCN(c2cnc(NCCNc3ccc(C#N)cn3)nc2-c2ccc(Cl)cc2Cl)C(=O)C1 [6-[(2-{[4-(2,4-dichlorophenyl)-5-(4-methyl-2-oxo-1-piperazinyl)-2-pyrimidinyl]amino}ethyl)amino]-nicotinonitrile]
12 | ≤ 10 | CCOC(=O)c1cnc(NCCc2ccccn2)nc1-c1cccc([N+](=O)[O-])c1 [ethyl 4-(3-nitrophenyl)-2-[(2-(2-pyridyl)ethyl)-amino]pyrimidine-5-carboxylate]
13 | ≤ 10 | O=S(=O)(NCc1ccccc1)c1ccc(-c2ccnc(NCCNc3ccccn3)n2)cc1 [benzyl{[4-(2-{[2-(2-pyridylamino)ethyl]-amino}pyrimidin-4-yl)phenyl]sulfonyl}amine]
14 | ≤ 10 | NC(=O)c1ccc(-c2ccnc(NCc3ccncc3)n2)cc1 [4-{2-[(4-pyridylmethyl)amino]pyrimidin-4-yl}benzamide]
15 | ≤ 10 | Cc1cccc(CNC(=O)c2ccc(-c3ccnc(NCc4cccc(Br)c4)n3)cc2)c1 [[4-(2-{[(3-bromophenyl)methyl]amino}pyrimidin-4-yl)phenyl]-N-[(3-methylphenyl)methyl]carboxamide]
16 | ≤ 10 | CCOC(=O)c1cnc(NCCNc2ccc([N+](=O)[O-])cn2)nc1-c1cc(C(F)(F)F)cc(C(F)(F)F)c1 [ethyl 4-[3,5-bis(trifluoromethyl)-phenyl]-2-({2-[(5-nitro(2-pyridyl))amino]ethyl}amino)pyrimidine-5-carboxylate]
17 | ≤ 1 | Nc1nc(NCCNc2ncc(N3C(=O)CCC3=O)c(-c3ccc(Cl)cc3Cl)n2)ccc1[N+](=O)[O-] [1-[2-({2-[(6-amino-5-nitro(2-pyridyl))amino]ethyl}amino)-4-(2,4-dichlorophenyl)pyrimidin-5-yl]-pyrrolidine-2,5-dione]
18 | ≤ 10 | c1ccc(Cc2cnc(NCCNc3ccccn3)nc2-c2ccccc2)cc1 [[4-phenyl-5-benzyl-pyrimidin-2-yl][2-(2-pyridylamino)ethyl]amine]
19 | ≤ 1 | N#Cc1ccc(-c2nc(NCCNc3ccc([N+](=O)[O-])cn3)ncc2C(=O)NC(CO)C(N)=O)cc1 (centres unmarked) [N-(1-carbamoyl-2-hydroxyethyl)[4-(4-cyanophenyl)-2-({2-[(5-nitro(2-pyridyl))-amino]ethyl}amino)pyrimidin-5-yl]carboxamide]
20 | ≤ 10 | CCOC(=O)c1cnc(NCCNc2ccc(C(=O)N3CCOCC3)cn2)nc1-c1ccc(C#N)cc1 [ethyl 4-(4-cyanophenyl)-2-[(2-{[5-(morpholin-4-ylcarbonyl)(2-pyridyl)]amino}ethyl)amino]pyrimidine-5-carboxylate]
21 | ≤ 1 | NC(=O)c1ccc(-c2ccnc(NCCCNc3ccc([N+](=O)[O-])cn3)n2)cc1 [4-[2-({3-[(5-nitro-2-pyridyl)amino]propyl}amino)pyrimidin-4-yl]benzamide]

Row | IC50 [µM] | SMILES
22 | ≤ 1 | N#Cc1ccc(-c2nc(NCCNc3ccc([N+](=O)[O-])cn3)ncc2C(=O)NCc2ccncc2)cc1 [[4-(4-cyanophenyl)-2-({2-[(5-nitro(2-pyridyl))-amino]ethyl}amino)pyrimidin-5-yl]-N-(4-pyridylmethyl)carboxamide]
23 | ≤ 10 | O=[N+]([O-])c1ccc(NCCNc2nccc(NCc3ccc(Cl)cc3)n2)nc1 [[(4-chlorophenyl)methyl][2-({2-[(5-nitro(2-pyridyl))amino]ethyl}amino)pyrimidin-4-yl]amine]
24 | ≤ 1 | Cc1cn(-c2ccc(NCCNc3ccc([N+](=O)[O-])c(N)n3)nc2-c2ccc(Cl)cc2Cl)cn1 [{2-[(6-amino-5-nitro(2-pyridyl))amino]ethyl}[6-(2,4-dichlorophenyl)-5-(4-methylimidazolyl)(2-pyridyl)]amine]
25 | ≤ 1 | Nc1nc(NCCNc2ncc(-c3ccncc3)c(-c3ccc(Cl)cc3Cl)n2)ccc1[N+](=O)[O-] [{2-[(6-amino-5-nitro(2-pyridyl))amino]ethyl}[4-(2,4-dichlorophenyl)-5-(4-pyridyl)pyrimidin-2-yl]amine]
26 | ≤ 1 | CCOC(=O)c1cnc(NCCNc2ccc([N+](=O)[O-])cn2)nc1-c1ccc(OC(F)(F)F)cc1
27 | ≤ 10 | CCOC(=O)c1cnc(NCCc2ccccn2)nc1-c1ccc(F)cc1 [ethyl 4-(4-fluorophenyl)-2-[(2-(2-pyridyl)ethyl)amino]pyrimidine-5-carboxylate]
28 | ≤ 1 | CCOC(=O)c1cnc(NCCNc2ccc([N+](=O)[O-])cn2)nc1-c1ccc(-n2cnnc2)cc1 [ethyl 2-({2-[(5-nitro(2-pyridyl))amino]ethyl}amino)-4-(4-(1,2,4-triazol-4-yl)phenyl)pyrimidine-5-carboxylate]
29 | ≤ 1 | Nc1nc(NCCNc2ncc(CO)c(-c3ccc(Cl)cc3Cl)n2)ccc1[N+](=O)[O-] [[2-({2-[(6-amino-5-nitro(2-pyridyl))amino]ethyl}amino)-4-(2,4-dichlorophenyl)pyrimidin-5-yl]methan-1-ol]
30 | ≤ 10 | Clc1ccc(-c2ccnc(NCCNc3ccccn3)n2)c(Cl)c1 [[4-(2,4-dichlorophenyl)pyrimidin-2-yl][2-(2-pyridylamino)ethyl]amine]
31 | ≤ 1 | N#Cc1ccc(NCCNc2ncc(-c3ncc[nH]3)c(-c3ccc(F)cc3Cl)n2)nc1 [6-[(2-{[4-(2-chloro-4-fluorophenyl)-5-imidazol-2-ylpyrimidin-2-yl]amino}ethyl)amino]pyridine-3-carbonitrile]
32 | ≤ 10 | N#Cc1ccc(-c2nc(NCCNc3ccc([N+](=O)[O-])cn3)ncc2[N+](=O)[O-])cc1 [4-[5-nitro-2-({2-[(5-nitro(2-pyridyl))amino]ethyl}amino)pyrimidin-4-yl]benzenecarbonitrile]
33 | ≤ 1 | N#Cc1ccc(-c2nc(NCCNc3ccc([N+](=O)[O-])cn3)ncc2C(=O)NCC(N)=O)cc1 [N-(carbamoylmethyl)[4-(4-cyanophenyl)-2-({2-[(5-nitro(2-pyridyl))amino]ethyl}amino)pyrimidin-5-yl]carboxamide]
34 | ≤ 1 | CN(C)CCOC(=O)c1cnc(NCCNc2ccc([N+](=O)[O-])c(N)n2)nc1-c1ccc(C#N)cc1
35 | ≤ 10 | Cc1cnc(NCCNc2ccccn2)nc1-c1ccc(Cl)cc1 [[4-(4-chlorophenyl)-5-methylpyrimidin-2-yl][2-(2-pyridylamino)ethyl]amine]
36 | ≤ 1 | CN(C)C(=O)c1cnc(NCCNc2ccc([N+](=O)[O-])cn2)nc1-c1ccc(C#N)cc1 [[4-(4-cyanophenyl)-2-({2-[(5-nitro(2-pyridyl))amino]ethyl}-amino)pyrimidin-5-yl]-N,N-dimethylcarboxamide]
37 | ≤ 1 | Cc1cn(-c2ccc(NCCNc3ccc(C#N)cn3)nc2-c2ccc(Cl)cc2Cl)cn1 [6-[(2-{[6-(2,4-dichlorophenyl)-5-(4-methylimidazolyl)-2-pyridyl]-amino}ethyl)amino]pyridine-3-carbonitrile]
38 | ≤ 10 | COc1cccc(CCNc2nccc(-c3ccc(C(=O)NCc4cccc(Br)c4)cc3)n2)c1 [N-[(3-bromophenyl)methyl][4-(2-{[2-(3-methoxyphenyl)ethyl]amino}pyrimidin-4-yl)phenyl]carboxamide]
39 | ≤ 10 | CC(=O)Nc1cccc(-c2cccc(CNc3nccc(-c4ccc(C(N)=O)cc4)n3)c2)c1 [4-{2-[({3-[3-(acetylamino)phenyl]phenyl}methyl)amino]pyrimidin-4-yl}benzamide]
40 | ≤ 10 | O=C(NCc1cccs1)c1ccc(-c2ccnc(NCCNc3ccc([N+](=O)[O-])cn3)n2)cc1 [{4-[2-({2-[(5-nitro(2-pyridyl))amino]ethyl}amino)-pyrimidin-4-yl]phenyl}-N-(2-thienylmethyl)carboxamide]
41 | ≤ 1 | O=C(O)c1ccc(-c2nc(NCCNc3ccc([N+](=O)[O-])cn3)nc(-c3ccc([N+](=O)[O-])cc3)c2C(=O)O)cc1 [4-(4-carboxyphenyl)-2-({2-[(5-nitro(2-pyridyl))amino]-ethyl}amino)-6-(4-nitrophenyl)pyrimidine-5-carboxylic acid]
